Test results as given in patent US20210186972A1, “FORMULATIONS AND METHODS FOR THE PREVENTION AND TREATMENT OF TUMOR METASTASIS AND TUMORIGENESIS” (THE UNITED STATES OF AMERICA, AS REPRESENTED BY THE …, priority 2018, published 2021).

Tests used:
Assay type in all cases: cell-based
[1] = test system: RPA194 and UBF occupancy on rDNA; test: Quantitative ChIP on rDNA; conditions: HeLa cells
Experimental: ChIP-qPCR: 2-5×10^7 cells were used for each ChIP assay according to previously described protocols. Briefly, HeLa cells with or without metarrestin treatment were crosslinked with 1% formaldehyde for 10 min at room temperature with rotation, and then crosslinking was quenched by the addition of glycine. Fixed chromatin was sonicated by Covaris and used for immunoprecipitation with the indicated antibody. Isolated DNA was analyzed by qPCR using SYBR green on CFX Connect Real-Time PCR Detection System (BioRad). The comparative cycle threshold method was applied to evaluate occupancy from replicate PCR reactions relative to the level of input. […]
Psoralen crosslinks active accessible DNA under UV light without displacing nucleosomes or transcription factors, or changing chromatin states. […] To examine the interactions between Pol I transcription factors and rDNA, quantitative ChIP experiments were carried out using primer sets across promoter and coding regions of rDNA (FIG. 29-30E).

[2] = test system: Pol I transcription (5′ETS RNA); test: rDNA transcription: BrU incorporation and qRT-PCR of 5′ETS
Experimental: To determine which steps in ribosomal biogenesis that are disrupted by metarrestin, rDNA transcription was evaluated using a BrU incorporation assay, an in situ run-on assay that detects the localization pattern of newly synthesized RNA. Cells were rinsed once in glycerol buffer (20 mM Tris-HCl pH 7.4, 5 mM MgCl2, 25% glycerol, 0.5 mM PMSF, 0.5 mM EGTA) and followed by Br—U incorporation assay protocol. The cells were co-immunolabeled with C23 (Santa Cruz Biotechnology) at a 1:100 dilution and anti-BrdU that also recognizes Br—U (Sigma) at a 1:50 dilution.
To evaluate the impact on rDNA transcription in metarrestin-treated cells, the amounts of 5′ETS RNA were quantified. The amount of 5′ETS correlates with the amount of rDNA transcription because 5′ETS in nascent pre-rRNA transcripts is rapidly removed.
RT-PCR: Total RNA was isolated from cells using TRIZOL reagent (Invitrogen) according to the manufacturer's instructions. cDNA was synthesized with Random Hexamer (IDT DNA Technologies) or gene-specific primers using M-MLV Reverse Transcriptase (Invitrogen 28025-013). The DNA was PCR-amplified with gene-specific primers. 5′ETS-F: […] (SEQ ID NO: 11); 5′ETS-R: GAACGACACACCACCGTTC (SEQ ID NO: 12); eEF1A1-F: […] […]

[3] = test system: GFP-RPL29; test: Ribosome synthesis, inducible GFP-RPL29 cell line; conditions: induced after exposure for 5 hours
Experimental: FIG. 24 is a panel showing that metarrestin interferes with ribosomal biogenesis. An inducible RPL29-GFP-expressing cell line synthesizes RPL29-GFP when treated with tetracyclin (2nd column). When cells were treated with 1 μM metarrestin before tetracycline induction, the newly synthesized proteins accumulated in the nucleoli and nuclei (right most panels) compared to the DMSO control treated cells (2nd from right panels). Scale bars=5 μm.
To examine whether the disruption of the nucleolar structure impacts ribosome synthesis, a cell line expressing inducible GFP-RPL29 (a ribosomal subunit) was used.

With `N=c1c2c(-c3ccccc3)c(-c3ccccc3)n(Cc3ccccc3)c2ncn1[C@H]1CC[C@H](O)CC1` [metarrestin] the “UBF binding to rDNA” value [1] was “without significant impact on UBF binding”, the “RPA194 occupancy on rDNA promoter and coding regions” value ([1]; p<0.01) was “significantly reduced RPA194 occupancy” and the “Organization of newly synthesized rRNA (BrU incorporation)” value ([2]; five-minute incubation) was “altered into tight small clusters”. The “5′ETS RNA (quantitative RT-PCR)” value ([2]; vs DMSO-treated control cells) was “substantial reduction of 5′ETS RNA”, the “Newly synthesized GFP-RPL29 in the cytoplasm” value [3] was “largely undetected in the cytoplasm” and the “Production of GFP-RPL29 and its nucleolar localization” value [3] was “appeared unchanged”.
